The structures appear in SMILES notation.

The melting point is the temperature, or range, at which the solid turns liquid. The compound `Cc1cc(C)nc(OC(C(=O)O)C(OCCc2ccccc2)(c2ccccc2)c2ccccc2)n1` (stereo not shown) [Compound I-720, 2-(4,6-Dimethyl-2-pyrimidinyloxy)-3-(2-phenylethoxy)-3,3-diphenyl propionic Acid] displayed a melting point of 130 to 133 °C. As for `CCCCOc1ccc(CCOC(c2ccccc2)(c2ccccc2)C(Oc2nc(C)cc(C)n2)C(=O)O)cc1` (stereo not shown) [Compound I-70, 2-(4,6-Dimethyl-2-pyrimidinyloxy)-3-(2-(4-butoxyphenyl)ethoxy)-3,3-diphenylpropionic Acid], the melting point is 122 to 125 °C.

`Cc1cc(C)nc(OC(C(=O)O)C(O/C=C/Cc2ccccc2)(c2ccccc2)c2ccccc2)n1` (stereo not shown) [Compound I-27, 2-(4,6-Dimethyl-2-pyrimidinyloxy)-3-(3-phenyl-(2E)-propenoxy)-3,3-diphenylpropionic Acid]: the melting point was in the range of 128 to 133 °C. With `CCCCOc1ccc(CCOC(c2ccccc2)(c2ccccc2)C(Oc2nc(C)cc(OC)n2)C(=O)O)cc1` (stereo not shown) [Compound I-71, 2-(4-Methoxy-6-methyl-2-pyrimidinyloxy)-3-(2-(4-butoxyphenyl)ethoxy)-3,3-diphenylpropionic Acid] the figure was 118 to 122 °C; with `COc1ccc(CCCOC(c2ccccc2)(c2ccccc2)C(Oc2nc(C)cc(C)n2)C(=O)O)cc1` (stereo not shown) [Compound I-555, 2-(4,6-Dimethyl-2-pyrimidinyloxy)-3-(3-(4-methoxyphenyl)propoxy)-3,3-diphenylpropionic Acid], 165 to 170 °C; with `COc1ccc(CCCOC(c2ccccc2)(c2ccccc2)C(Oc2nc(C)cc(OC)n2)C(=O)O)cc1` (stereo not shown) [Compound I-554, 2-(4-Methoxy-6-methyl-2-pyrimidinyloxy)-3-(3-(4-methoxyphenyl)propoxy)-3,3-diphenylpropionic Acid], 160 to 165 °C. Take `Cc1cc(C)nc(OC(C(=O)O)C(OCCCc2ccccc2Cl)(c2ccccc2)c2ccccc2)n1` (stereo not shown) [Compound I-384, 2-(4,6-Dimethyl-2-pyrimidinyloxy)-3-(3-(2-chlorophenyl)propoxy)-3,3-diphenylpropionic Acid]: the melting point fell in the range of 172 to 178 °C. With `CCCOc1ccc(CCOC(c2ccccc2)(c2ccccc2)C(Oc2nc(C)cc(OC)n2)C(=O)O)cc1` (stereo not shown) [Compound I-69, 2-(4-Methoxy-6-methyl-2-pyrimidinyloxy)-3-(2-(4-propoxyphenyl)ethoxy)-3,3-diphenylpropionic Acid] the figure was 115 to 119 °C; with `CCc1ccc(C(OCCc2ccc(OC)cc2)(c2ccc(CC)cc2)C(Oc2nc(C)cc(OC)n2)C(=O)O)cc1` (stereo not shown) [Compound I-147, 2-(4-Methoxy-6-methyl-2-pyrimidinyloxy)-3-(2-(4-methoxyphenyl)ethoxy)-3,3-di(4-ethylphenyl)propionic Acid], 150 to 155 °C; with `COc1cc(C)nc(OC(C(=O)O)C(OCCc2ccccc2)(c2ccccc2)c2ccccc2)n1` (stereo not shown) [Compound I-719, 2-(4-Methoxy-6-methyl-2-pyrimidinyloxy)-3-(2-phenylethoxy)-3,3-diphenylpropionic Acid], 155 °C (dec.). With `CCc1ccc(C(OCCc2ccc(OC)cc2)(c2ccc(CC)cc2)C(Oc2nc(C)cc(C)n2)C(=O)O)cc1` (stereo not shown) [Compound I-148, 2-(4,6-Dimethyl-2-pyrimidinyloxy)-3-(2-(4-methoxyphenyl)ethoxy)-3,3-di(4-ethylphenyl)propionic Acid], the melting point fell in the range of 130 to 133 °C. With `COc1cc(C)nc(OC(C(=O)O)C(OCCc2ccc(Cl)cc2)(c2ccccc2)c2ccccc2)n1` (stereo not shown) [Compound I-746, 2-(4-Methoxy-6-methyl-2-pyrimidinyloxy)-3-(2-(4-chlorophenyl)ethoxy)-3,3-diphenylpropionic Acid] the figure was 93 to 98 °C; with `COc1cc(C)nc(OC(C(=O)O)C(OCCc2ccc(C)cc2)(c2ccc(Cl)cc2)c2ccc(Cl)cc2)n1` (stereo not shown) [Compound I-710, 2-(4-Methoxy-6-methyl-2-pyrimidinyloxy)-3-(2-(4-methylphenyl)ethoxy)-3,3-di(4-chlorophenyl)propionic Acid], 90 to 100 °C.

Values taken from patent publication US6670367B1, “Azinyloxy, and phenoxy-diaryl-carboxylic acid derivatives, their preparation and use as mixed ETA/ETB endothelin receptor antagonists” (Abbott GmbH & Co., KG, priority 1996, dated 2003).
